Results on one compound are retold here after ChEMBL document CHEMBL1145887, “Large dimeric ligands with favorable pharmacokinetic properties and peroxisome proliferator-activated receptor agonist activity in vitro and in vivo” (J Med Chem, 2003).

The nature of data set [1]: Clearance in rat. Type of data set: ADME, organism-based. The note with it: in vivo.
Data set [2] in a line: Partition coefficient (logP). Type of data set: physicochemical. The note with it: octanol/water.
The nature of data set [3]: Oral bioavailability in rat. Type of data set: ADME, organism-based. The note with it: in vivo.
A short description of data set [4]: Area under the plasma concentration-time curve in rat after peroral administration. Type of data set: ADME, organism-based. The note with it: po.
Data set [5] is described as follows: Volume of distribution during steady state in rat. Particulars: in vivo.
Data set [6] is described as follows: Maximum plasma concentration in rat after peroral administration. It counts as ADME, organism-based. The arrangement: route oral. Particulars: po.
Data set [7] can be described thus: Oral half-life in rat after peroral administration. The note with it: in vivo. It counts as ADME, organism-based.
Data set [8] relates to Mus musculus. The data set is described as follows: In vivo insulin effect in db/db mice after oral treatment. It counts as functional.
Data set [9] relates to Mus musculus. The data set is described as follows: In vivo nonfasting blood glucose in db/db mice after oral treatment. It counts as functional.
In data set [10] the test system is Mus musculus. The data set is described as follows: In vivo nonfasting triglyceride in db/db mice after oral treatment. It counts as functional.
The species entered for data set [11] is Mus musculus. The data set is described as follows: Area under blood glucose time curve after oral glucose test in mice. Type of data set: functional.
Data set [12] addresses T1, Peroxisome proliferator-activated receptor delta (Homo sapiens, UniProt Q03181).
T1 sequence (Q03181 whole entry): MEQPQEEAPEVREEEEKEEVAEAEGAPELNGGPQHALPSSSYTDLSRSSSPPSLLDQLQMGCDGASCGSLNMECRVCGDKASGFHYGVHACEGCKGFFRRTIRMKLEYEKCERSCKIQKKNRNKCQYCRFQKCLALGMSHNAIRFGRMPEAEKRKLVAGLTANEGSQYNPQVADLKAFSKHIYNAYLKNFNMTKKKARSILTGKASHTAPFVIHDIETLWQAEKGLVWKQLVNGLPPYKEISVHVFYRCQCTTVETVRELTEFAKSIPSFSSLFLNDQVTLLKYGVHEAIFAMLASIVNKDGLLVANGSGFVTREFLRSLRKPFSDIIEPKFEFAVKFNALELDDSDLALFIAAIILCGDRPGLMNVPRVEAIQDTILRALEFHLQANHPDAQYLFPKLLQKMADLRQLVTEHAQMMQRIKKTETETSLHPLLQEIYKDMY
The data set is described as follows: In vitro transactivation of human Peroxisome proliferator activated receptor delta (hPPARdelta).

Data set [13] concerns the target T2, Peroxisome proliferator-activated receptor alpha (Rattus norvegicus, UniProt P37230).
T2 sequence (P37230 whole entry): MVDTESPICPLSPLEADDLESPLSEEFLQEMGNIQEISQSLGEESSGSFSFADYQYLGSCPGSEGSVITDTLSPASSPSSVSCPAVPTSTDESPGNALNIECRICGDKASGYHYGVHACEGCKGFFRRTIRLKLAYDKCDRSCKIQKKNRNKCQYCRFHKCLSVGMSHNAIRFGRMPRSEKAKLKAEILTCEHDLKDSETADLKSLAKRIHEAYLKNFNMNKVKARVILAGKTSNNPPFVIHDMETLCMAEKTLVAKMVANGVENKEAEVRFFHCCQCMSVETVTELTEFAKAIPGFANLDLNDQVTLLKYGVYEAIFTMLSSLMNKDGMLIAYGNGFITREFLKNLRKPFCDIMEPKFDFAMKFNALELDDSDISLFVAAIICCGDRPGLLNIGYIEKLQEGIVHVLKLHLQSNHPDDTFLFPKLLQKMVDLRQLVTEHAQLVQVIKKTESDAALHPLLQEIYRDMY
The data set is described as follows: (§1) In vitro transactivation of rat Peroxisome proliferator activated receptor alpha.

The target of data set [14] is T3, Peroxisome proliferator-activated receptor alpha (Rattus norvegicus) (UniProt P37230).
T3 sequence (whole entry): T2 sequence (P37230 whole entry)
The description is as §1. The arrangement: concentration or dose not given beside the values.

Data set [15] concerns the target T4, Peroxisome proliferator-activated receptor alpha (Homo sapiens, UniProt Q07869).
T4 sequence (Q07869 whole entry): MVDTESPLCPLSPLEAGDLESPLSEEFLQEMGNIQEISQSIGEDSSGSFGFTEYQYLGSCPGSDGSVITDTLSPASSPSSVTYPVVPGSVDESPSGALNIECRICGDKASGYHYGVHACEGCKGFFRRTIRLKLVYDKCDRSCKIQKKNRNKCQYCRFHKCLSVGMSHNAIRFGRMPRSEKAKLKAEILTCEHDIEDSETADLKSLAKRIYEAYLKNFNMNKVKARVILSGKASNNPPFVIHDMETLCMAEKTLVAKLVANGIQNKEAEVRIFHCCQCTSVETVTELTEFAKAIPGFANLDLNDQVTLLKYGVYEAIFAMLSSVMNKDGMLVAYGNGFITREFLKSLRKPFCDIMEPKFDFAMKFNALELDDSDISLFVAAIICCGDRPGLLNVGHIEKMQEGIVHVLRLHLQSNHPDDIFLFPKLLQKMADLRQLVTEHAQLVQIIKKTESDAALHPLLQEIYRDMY
The data set is described as follows: (§2) In vitro transactivation of human Peroxisome proliferator activated receptor alpha (hPPARalpha).

In data set [16] the target is T5, Peroxisome proliferator-activated receptor alpha (Homo sapiens) (UniProt Q07869).
T5 sequence (whole entry): T4 sequence (Q07869 whole entry)
The description is as §2. Also on record: concentration or dose not given beside the values.

Data set [17] has as its target T6, Peroxisome proliferator-activated receptor gamma (Homo sapiens, UniProt P37231).
T6 sequence (P37231 whole entry): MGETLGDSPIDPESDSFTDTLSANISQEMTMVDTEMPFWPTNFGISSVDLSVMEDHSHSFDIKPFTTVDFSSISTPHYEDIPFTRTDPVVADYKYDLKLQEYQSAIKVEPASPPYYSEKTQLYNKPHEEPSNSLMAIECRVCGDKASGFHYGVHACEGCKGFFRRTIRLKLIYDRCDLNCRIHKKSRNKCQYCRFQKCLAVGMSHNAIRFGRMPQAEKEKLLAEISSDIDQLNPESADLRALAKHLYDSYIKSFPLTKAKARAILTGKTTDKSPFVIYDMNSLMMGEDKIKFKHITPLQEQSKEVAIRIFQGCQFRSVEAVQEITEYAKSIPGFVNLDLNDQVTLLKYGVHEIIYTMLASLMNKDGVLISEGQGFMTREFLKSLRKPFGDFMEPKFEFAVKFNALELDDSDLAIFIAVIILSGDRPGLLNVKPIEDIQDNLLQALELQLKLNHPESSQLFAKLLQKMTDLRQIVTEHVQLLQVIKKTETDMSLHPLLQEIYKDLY
Description: In vitro transactivation of human Peroxisome proliferator activated receptor gamma

In the case of `CCO[C@@H](Cc1ccc(OC/C=C/C#Cc2ccccc2)cc1)C(=O)O`, the clearance (usually the volume of plasma or blood freed of the substance per unit of time) in data set [1] was 0.54 mL/min/kg. For the same compound, in data set [2], the logP (as a rule, the decadic logarithm of the partition coefficient of the neutral form, usually between octanol and water) turned out to be 3.87. Besides, the bioavailability – broadly, dose-corrected exposure relative to a reference, in per cent – in [3] was determined as 89%. Moreover, in data set [4], the area under the curve (AUC) (commonly concentration integrated over time) is 62200 ng·h/mL. In addition, the Vd (as a rule, a proportionality between amount in the body and measured concentration, not a real space) in [5] was 0.14 L/kg. Also, the Cmax – broadly, the maximum level reached in the sampled fluid or tissue – in data set [6] amounted to 4570 ng/mL. In data set [7], the half-life (in general, the time in which the quantity being followed falls by half) was found to be 2.03 h. The ED50 (usually the dose at which the effect has come halfway, by size or by number of responders) with Mus musculus [8] was 1 mg/kg; in the data set with Mus musculus [9], 0.4 mg/kg; in the data set with Mus musculus [10], 0.4 mg/kg; in the data set filed under Mus musculus [11] (Mus musculus, Blood, po), 1.2 mg/kg. Besides, the Max reduction in the data set on Mus musculus [8] came to 92%; in the data set on Mus musculus [9], 54%; in the data set on Mus musculus [10], 57%; in the data set listed under Mus musculus [11] it was 45%. For the same compound, the EC50 (as a rule, the concentration needed to bring the measured effect to its halfway point) in [12] is 6900 nM; in data set [13], 700 nM; in data set [15], 67 nM; in [17], 1130 nM. The Fold activation in data set [14] was determined as 112%; in data set [16], 123%.
